The subject of one assay is Staph. aureus DPC5245. Briefly: Deferred antagonism assay. The assay is classed as cell-based. The following applies: producing strain; diameter of zone minus 5 mm; average of duplicates; St. aureus DPC5245. The procedure: (§1) Deferred antagonism assays were performed by replicating strains on GM17 or GM17 x-gal agar plates and allowing them to grow overnight before overlaying with either GM17/BHI/TS/MH agar (0.75% w/v agar) seeded with the appropriate indicator strain. Zone size was calculated as the diameter of the zone of clearing minus the diameter of bacterial growth (5 mm) For higher throughput screening of N20PXX, XM21VX, XXK22T and XXX banks deferred antagonism assays were performed by replicating strains using a 96 pin replicator (Boekel) or spotting 5 μl of a fresh overnight culture on GM17 agar plates and allowing them to grow overnight. […] Additional sets of indicators were employed to further assess/reassess the bioactivity of a number of strains. […] For well-diffusion assays molten agar was cooled to 48° C. and seeded with the appropriate indicator strain. The inoculated medium was rapidly transferred into sterile Petri plates in 50 ml volumes, allowed to solidify and dried. Wells (4.6 mm in diameter) were then made in the seeded plates. Purified nisin and mutant nisins were resuspended in 0.005% acetic acid, serially diluted, 50 μl volumes were dispensed into the aforementioned wells and the plates incubated at 37° C. overnight. Bioactivity was expressed as arbitrary units/ml (AU/ml) and calculated as the reciprocal of the highest dilution that gave a definite zone multiplied by the conversion factor (i.e. 20 when 50 μl was used) (Ryan et al., 1996).
(§2) As a consequence of the enhanced activities of K22T and K22S, a more in-depth investigation of this region was carried out. Saturation mutagenesis was undertaken to create a bank of nisin A hinge derivatives containing the vast majority of possible amino acid substitutions for each position. Although pPTPL was used successfully for random mutagenesis, its relatively large size of approx 10.5 kb was considered unsuitable for the complete plasmid PCR amplification approach utilized for saturation mutagenesis. A smaller (approx 6 kb) E. coli-L. lactis shuttle vector pCI372 was considered to be potentially more useful. Its suitability with respect to the in trans expression of nisA was confirmed by the ability of pDFO5 to restore the nisin positive phenotype. Saturation mutagenesis was performed on each codon using pDF05 and oligonucleotides (Table 5) that replace the specific codon with a NNK triplet, potentially encoding all 20 standard amino acids. Following complete plasmid amplification and introduction into the intermediate Top10 host, sequence analysis of a pooled bank of pDF05 derivatives confirmed randomization. Introduction of these variants into L. lactis NZ9800 allowed the expression of mutant nisin A peptides for further analysis. […] 46 residue conversions were isolated. All strains, regardless of bioactivity, were assessed with a view to comprehensively assessing the consequences of each individual hinge alteration.
(§3) Values are an average of duplicate experiments and represent zone size (diameter of zone minus diameter of bacterial growth (i.e. 5 mm) relative to that of the NZ9800 pCI372nisA control. X=Mutants not identified.

Assay [1] relates to Staph. aureus ST528 (MRSA). Briefly: Deferred antagonism assay. The assay is classed as cell-based. The following applies: producing strain, diameter of zone minus diameter of bacterial growth (5 mm), average of duplicates. As for the experimental part: as §1, §2, §3
Assay [2] has as its system Strep. agalactiae ATCC13813. Briefly: Deferred antagonism assay. It is filed as cell-based. To be noted: producing strain, diameter of zone minus 5 mm, average of duplicates. The procedure:
as §1, §2, §3

The test system of a further assay is L. monocytogenes CBC1. Briefly: Deferred antagonism assay. On the set-up: key: + = Enhanced bioactivity relative to control; − = Bioactivity equal to or less than control; NA = no activity evident. It is filed as cell-based, Listeria monocytogenes. To be noted: producing strain; L. mono CBC1. The gist of the method: (§4)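 Producer strains replicated on GM17 or GM17 x-gal agar, grown overnight, then overlaid with 0.75% agar seeded with indicator strain. Zone size = diameter of clearing minus 5 mm growth diameter. Purified nisins tested by well diffusion at 37° C overnight; activity in AU/ml from reciprocal of highest active dilution × 20.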

In a further assay the test system is L. monocytogenes CBC2. The assay is described as follows: Deferred antagonism assay. It is filed as cell-based, Listeria monocytogenes. On the set-up: key: + = Enhanced bioactivity relative to control; − = Bioactivity equal to or less than control; NA = no activity evident. To be noted: producing strain; L. mono CBC2. The gist of the method: as §4
Another assay deals with L. monocytogenes CBC3. The assay is described as follows: Deferred antagonism assay. The assay is classed as cell-based, Listeria monocytogenes. On the set-up: key: + = Enhanced bioactivity relative to control; − = Bioactivity equal to or less than control; NA = no activity evident. The following applies: producing strain; L. mono CBC3. The gist of the method:
as §4

The next assay deals with L. lactis CBC7. The assay is described as follows: Deferred antagonism assay. On the set-up: key: + = Enhanced bioactivity relative to control; − = Bioactivity equal to or less than control; NA = no activity evident. To be noted: producing strain. The assay is classed as cell-based. The gist of the method: as §4
A further assay relates to L. lactis CBC8. The assay is described as follows: Deferred antagonism assay. It is filed as cell-based. On the set-up: key: + = Enhanced bioactivity relative to control; − = Bioactivity equal to or less than control; NA = no activity evident. To be noted: producing strain. The gist of the method:
as §4

In another assay the test system is S. aureus CBC4. Briefly: Deferred antagonism assay. It is filed as cell-based. On the set-up: key: + = Enhanced bioactivity relative to control; − = Bioactivity equal to or less than control; NA = no activity evident. To be noted: producing strain. The gist of the method:
as §4

Another assay has as its system C. sporogenes CBC5. Briefly: Deferred antagonism assay. It is filed as cell-based, Clostridium sporogenes. Set-up: key: + = Enhanced bioactivity relative to control; − = Bioactivity equal to or less than control; NA = no activity evident. The following applies: producing strain.
For a further assay, the system named is L. plantarum CBC6. Briefly: Deferred antagonism assay. It is filed as cell-based, Lactobacillus plantarum. Set-up: key: + = Enhanced bioactivity relative to control; − = Bioactivity equal to or less than control; NA = no activity evident. To be noted: producing strain. The gist of the method:
as §4

In a further assay the test system is indicator strains. Briefly: Deferred antagonism assays, various indicator strains (summary). It is filed as cell-based. The following applies: for Strain(s) against which the derivative (producing strain) displays enhanced bioactivity: relative to nisin A-producing control, value = strains listed. The gist of the method: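 Producer strains were replicated on GM17 or GM17 x-gal agar, grown overnight, then overlaid with GM17, BHI, TS or MH soft agar (0.75% w/v) seeded with the indicator strain. Zone size was taken as the clearing diameter minus the diameter of bacterial growth (5 mm).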

“Also recorded” adds a separate entry of the source. Ends that are not written are not given here.

Consider 7 substances from patent US8987193B2, “Nisin derivatives and the use thereof” (University College Cork—National University of Ireland, Cork, priority 2008, dated 2015).

Turning to “K22F: nisin A derivative, hinge substitution K22F (ITSISLCTPGCKTGALMGCNMFTATCHCSIHVSK; cysteine pairing not given here; also: lantibiotic nisin-A; UniProt P13068 24-57, looked up, variant K22F)”, the “zone size relative to that of the NZ9800 pCI372nisA control” value (“zone size relative to that” for short) with Staph. aureus DPC5245 came to 56%; in assay [1] it was 29%; in assay [2], 57%. Further, the “Bioactivity relative to control” value in the assay with L. monocytogenes CBC1, in the assay with L. monocytogenes CBC2, in the assay with L. monocytogenes CBC3, with L. lactis CBC7, in the assay with L. lactis CBC8 and with S. aureus CBC4 was “−” throughout. In addition, the “Bioactivity relative to control” value in the assay on C. sporogenes CBC5 and in the assay on L. plantarum CBC6 was “−” each time.
As for “K22H: nisin A derivative, hinge substitution K22H (ITSISLCTPGCKTGALMGCNMHTATCHCSIHVSK; cysteine pairing not given here; also: lantibiotic nisin-A; UniProt P13068 24-57, looked up, variant K22H)”, the “zone size relative to that” value with Staph. aureus DPC5245 was 97%; in assay [1], 97%; in assay [2], 104%. Also, the “Bioactivity relative to control” value in the assay on L. monocytogenes CBC1, in the assay with L. monocytogenes CBC2, in the assay on L. monocytogenes CBC3, with L. lactis CBC7, with L. lactis CBC8 and in the assay with S. aureus CBC4 was “−” throughout. For the same substance, the “Bioactivity relative to control” value in the assay on C. sporogenes CBC5 and in the assay on L. plantarum CBC6 was “−” in each case.
“M21F: nisin A derivative, hinge substitution M21F (ITSISLCTPGCKTGALMGCNFKTATCHCSIHVSK; cysteine pairing not given here; also: lantibiotic nisin-A; UniProt P13068 24-57, looked up, variant M21F)”: the “zone size relative to that” value was 21.5% in the assay on Staph. aureus DPC5245, 20% in assay [1] and 0% in assay [2]. Also, the “Bioactivity relative to control” value in the assay with L. monocytogenes CBC1, in the assay on L. monocytogenes CBC2, in the assay with L. monocytogenes CBC3, in the assay with L. lactis CBC7, in the assay on L. lactis CBC8 and in the assay on S. aureus CBC4 was “−” in each case. Besides, the “Bioactivity relative to control” value in the assay on C. sporogenes CBC5 and in the assay on L. plantarum CBC6 was “−” in each case.
For the substance “N20I: nisin A derivative, hinge substitution N20I (ITSISLCTPGCKTGALMGCIMKTATCHCSIHVSK; cysteine pairing not given here; also: lantibiotic nisin-A; UniProt P13068 24-57, looked up, variant N20I)”, the “zone size relative to that” value is 49% with Staph. aureus DPC5245 and 61% in assay [2]. For the same substance, the “Bioactivity relative to control” value in the assay on L. monocytogenes CBC1, in the assay with L. monocytogenes CBC2, in the assay with L. monocytogenes CBC3, with L. lactis CBC7, in the assay on L. lactis CBC8 and with S. aureus CBC4 was “−” in each case. The “Bioactivity relative to control” value in the assay on C. sporogenes CBC5 and with L. plantarum CBC6 was “−” each time. Besides, the “bioactivity of the producing strain, in words” value with indicator strains (in general / against the strains tested) was “retention of relatively high levels of bioactivity”.
For “N20W: nisin A derivative, hinge substitution N20W (ITSISLCTPGCKTGALMGCWMKTATCHCSIHVSK; cysteine pairing not given here; also: lantibiotic nisin-A; UniProt P13068 24-57, looked up, variant N20W)”, the “zone size relative to that” value in [1] is 5.4%; in [2] it was 0%. The “Bioactivity relative to control” value in the assay with L. monocytogenes CBC1, in the assay with L. monocytogenes CBC2, in the assay with L. monocytogenes CBC3, in the assay on L. lactis CBC7, in the assay with L. lactis CBC8 and in the assay with S. aureus CBC4 was “−” each time. For the same substance, the “Bioactivity relative to control” value in the assay on C. sporogenes CBC5 and in the assay on L. plantarum CBC6 was “−” in each case.
As to “NisinA M21Y (ITSISLCTPGCKTGALMGCNYKTATCHCSIHVSK; not fully specified; also: lantibiotic: lanthionine rings and dehydro residues not placed; UniProt P13068 24-57, looked up, variant M21Y) [nisin A derivative, hinge substitution M21Y]”, the “zone size relative to that” value in assay [2] amounted to 65%. In addition, the “Bioactivity relative to control” value with L. monocytogenes CBC1 was “−”; in the assay on L. monocytogenes CBC2, “+”; with L. monocytogenes CBC3, “+”; in the assay on L. lactis CBC7 it was “+”; in the assay with L. lactis CBC8 it was “−”; in the assay with S. aureus CBC4, “+”. Besides, the “Bioactivity relative to control” value with C. sporogenes CBC5 is listed as “+”; in the assay on L. plantarum CBC6 it was “−”. Further, in the assay with indicator strains, the “Strain(s) against which the derivative (producing strain) displays enhanced bioactivity” value is “L. monocytogenes CBC2 and CBC3 as well as Staph. aureus CBC4, C. sporogenes CBC5 and L. lactis CBC7; also recorded: L. monocytogenes CBC2, CBC3, S. aureus CBC4, C. sporogenes CBC5 and L. lactis 7”.
Turning to “NisinA N20T (ITSISLCTPGCKTGALMGCTMKTATCHCSIHVSK; not fully specified; also: lantibiotic nisin: dehydrated residues and thioether rings not placed; UniProt P13068 24-57, looked up, variant N20T) [nisin A derivative, hinge substitution N20T]”, the “zone size relative to that” value in the assay with Staph. aureus DPC5245 is listed as 90%; in assay [1], 79%. Besides, the “Bioactivity relative to control” value in the assay on L. monocytogenes CBC1, with L. monocytogenes CBC2, with L. monocytogenes CBC3, in the assay on L. lactis CBC7, with L. lactis CBC8 and in the assay with S. aureus CBC4 was “−” throughout. Further, the figures for the “Bioactivity relative to control” value with C. sporogenes CBC5 and in the assay with L. plantarum CBC6 were “+” and “−”, respectively. The “Strain(s) against which the derivative (producing strain) displays enhanced bioactivity” value in the assay with indicator strains is listed as “C. sporogenes CBC5”.
